{
  "source": "patent US20130143929A1",
  "about": "“FUNGICIDAL IMIDAZOLES” (EI DU PONT DE NEMOURS AND COMPANY, priority 2010, published 2013)",
  "type_in_all_cases": "in vivo",
  "key": {"[1]": {"tested_on": "Puccinia recondite f. sp. tritici (the causal agent of wheat leaf rust)", "assay": "Test A: wheat leaf rust, preventive spray on wheat seedlings, visual disease rating", "details": "for Test A rating (100 = 100% disease control, 0 = no disease control relative to the controls): wheat leaf rust, preventive spray on wheat seedlings", "method_in_brief": "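This was a preventive test: Puccinia recondite f. sp. tritici inoculum was applied one day after compound spray to run-off. Test suspensions were made in 50/50 acetone/water with 250 ppm surfactant, at 200 ppm (800 g/ha equivalent) or 40 ppm. Visual ratings of % disease control relative to controls were made after 24 h of saturated humidity and 7 growth-chamber days, all at 20° C.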"}, "[2]": {"tested_on": "Blumeria graminis f. sp. tritici (also known as Erysiphe graminis f. sp. tritici, the causal agent of wheat powdery mildew)", "assay": "Test D: wheat powdery mildew, preventive spray on wheat seedlings, visual disease rating", "details": "for Test D rating (100 = 100% disease control, 0 = no disease control relative to the controls): wheat powdery mildew, preventive spray on wheat seedlings", "method_in_brief": "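Preventive test: seedlings sprayed to run-off and inoculated with powdery mildew spores one day later. Suspensions were made in 50/50 acetone/water with 250 ppm Trem 014 surfactant (200 ppm equals 800 g/ha). Visual ratings after 8 days at 20 °C give percent disease control versus controls.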"}, "[3]": {"tested_on": "Septoria tritici (the causal agent of wheat leaf blotch)", "assay": "Test B: wheat leaf blotch, preventive spray on wheat seedlings, visual disease rating", "details": "for Test B rating (100 = 100% disease control, 0 = no disease control relative to the controls): wheat leaf blotch, preventive spray on wheat seedlings", "method_in_brief": "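Preventive test: Septoria tritici spores applied one day after run-off spraying of seedlings (200 ppm equals 800 g/ha; some tests 40 ppm). After 48 h at 24 °C saturated atmosphere and 19 days at 20 °C, disease scored visually as % control relative to untreated plants.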"}, "[4]": {"tested_on": "Botrytis cinerea (the causal agent of tomato Botrytis)", "assay": "Test C: tomato Botrytis, preventive spray on tomato seedlings, visual disease rating", "details": "for Test C rating (100 = 100% disease control, 0 = no disease control relative to the controls): tomato Botrytis, preventive spray on tomato seedlings", "method_in_brief": "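Preventive test: B. cinerea spore inoculation one day after tomato seedlings were sprayed to run-off with compound suspended in 50/50 acetone–water plus 250 ppm surfactant. Plants held 48 h at 20° C in saturated air, then 3 days at 24° C; visual ratings scored 100 (full control) to 0 versus controls; some entries used 40 ppm.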"}, "[5]": {"details": "asterisk: 40 ppm test suspension"}, "[6]": {"details": "no asterisk (standard test suspension concentration, not 40 ppm)"}, "[7]": {"details": "no asterisk: standard test suspension concentration, 100 = 100% disease control, 0 = no control relative to controls"}},
  "note": "Marks after values point to notes of the source that are not given here.",
  "data": [
    {"smiles": "Cc1nc(Cl)c(C(O)c2ccc(F)cc2Cl)n1-c1c(F)cc(F)cc1Br", "note": "(stereo not drawn) [compound 137]", "values": [
      {"measurement": "Test A rating (100 = 100% disease control, 0 = no disease control relative to the controls)", "setting": "[1]; [5]", "value": "100* %"},
      {"measurement": "Test D rating (100 = 100% disease control, 0 = no disease control relative to the controls)", "setting": "[2]; [5]", "value": "87* %"},
      {"measurement": "Test B rating (100 = 100% disease control, 0 = no disease control relative to the controls)", "setting": "[3]; [5]", "value": "100* %"},
      {"measurement": "Test C rating (100 = 100% disease control, 0 = no disease control relative to the controls)", "setting": "[4]; [5]", "value": "100* %"}
    ]},
    {"smiles": "OC(c1ccc(F)cc1F)c1cnc(C2CC2)n1-c1c(F)cccc1Br", "note": "(stereo not drawn) [compound 152]", "values": [
      {"measurement": "Test A rating (100 = 100% disease control, 0 = no disease control relative to the controls)", "setting": "[1]; [6]", "value": 74, "unit": "%"},
      {"measurement": "Test D rating (100 = 100% disease control, 0 = no disease control relative to the controls)", "setting": "[2]; [6]", "value": 0, "unit": "%"},
      {"measurement": "Test B rating (100 = 100% disease control, 0 = no disease control relative to the controls)", "setting": "[3]; [6]", "value": 0, "unit": "%"},
      {"measurement": "Test C rating (100 = 100% disease control, 0 = no disease control relative to the controls)", "setting": "[4]; [6]", "value": 0, "unit": "%"}
    ]},
    {"smiles": "Cc1ncc(C(O)c2ccc(Cl)cc2)n1-c1ccc(F)cc1F", "note": "(stereo not drawn) [compound 378]", "values": [
      {"measurement": "Test A rating (% disease control, wheat leaf rust)", "setting": "[1]; [7]", "value": 37, "unit": "%"},
      {"measurement": "Test D rating (% disease control, wheat powdery mildew)", "setting": "[2]; [7]", "value": 0, "unit": "%"},
      {"measurement": "Test B rating (% disease control, wheat leaf blotch)", "setting": "[3]; [7]", "value": 74, "unit": "%"},
      {"measurement": "Test C rating (% disease control, tomato Botrytis)", "setting": "[4]; [7]", "value": 0, "unit": "%"}
    ]},
    {"smiles": "Cc1nc(Cl)c(C(O)c2c(F)cc(F)cc2F)n1-c1ccc(Cl)cc1", "note": "(stereo not drawn) [compound 204]", "values": [
      {"measurement": "Test A rating (100 = 100% disease control, 0 = no disease control relative to the controls)", "setting": "[1]; [6]", "value": 19, "unit": "%"},
      {"measurement": "Test D rating (100 = 100% disease control, 0 = no disease control relative to the controls)", "setting": "[2]; [6]", "value": 0, "unit": "%"},
      {"measurement": "Test B rating (100 = 100% disease control, 0 = no disease control relative to the controls)", "setting": "[3]; [6]", "value": 75, "unit": "%"},
      {"measurement": "Test C rating (100 = 100% disease control, 0 = no disease control relative to the controls)", "setting": "[4]; [6]", "value": 45, "unit": "%"}
    ]},
    {"smiles": "Cc1ncn(-c2c(F)cc(F)cc2Cl)c1C(O)c1ccc(F)cc1F", "note": "(racemic) [compound 12]", "values": [
      {"measurement": "Test A rating (100 = 100% disease control, 0 = no disease control relative to the controls)", "setting": "[1]; [6]", "value": 99, "unit": "%"},
      {"measurement": "Test D rating (100 = 100% disease control, 0 = no disease control relative to the controls)", "setting": "[2]; [6]", "value": 21, "unit": "%"},
      {"measurement": "Test B rating (100 = 100% disease control, 0 = no disease control relative to the controls)", "setting": "[3]; [6]", "value": 100, "unit": "%"},
      {"measurement": "Test C rating (100 = 100% disease control, 0 = no disease control relative to the controls)", "setting": "[4]; [6]", "value": 95, "unit": "%"}
    ]},
    {"smiles": "COc1ccc(C(O)c2c(Br)nc(C)n2-c2c(F)cc(F)cc2Cl)c(F)c1", "note": "(stereo not drawn) [compound 347]", "values": [
      {"measurement": "Test A rating (100 = 100% disease control, 0 = no disease control relative to the controls)", "setting": "[1]; [5]", "value": "100* %"},
      {"measurement": "Test D rating (100 = 100% disease control, 0 = no disease control relative to the controls)", "setting": "[2]; [5]", "value": "69* %"},
      {"measurement": "Test B rating (100 = 100% disease control, 0 = no disease control relative to the controls)", "setting": "[3]; [5]", "value": "100* %"},
      {"measurement": "Test C rating (100 = 100% disease control, 0 = no disease control relative to the controls)", "setting": "[4]; [5]", "value": "82* %"}
    ]},
    {"smiles": "COc1cc(F)c(C(O)c2c(Cl)nc(C)n2-c2ccc(F)cc2Br)c(F)c1", "note": "(stereo not drawn) [compound 325]", "values": [
      {"measurement": "Test A rating (100 = 100% disease control, 0 = no disease control relative to the controls)", "setting": "[1]; [5]", "value": "100* %"},
      {"measurement": "Test D rating (100 = 100% disease control, 0 = no disease control relative to the controls)", "setting": "[2]; [5]", "value": "92* %"},
      {"measurement": "Test B rating (100 = 100% disease control, 0 = no disease control relative to the controls)", "setting": "[3]; [5]", "value": "98* %"},
      {"measurement": "Test C rating (100 = 100% disease control, 0 = no disease control relative to the controls)", "setting": "[4]; [5]", "value": "100* %"}
    ]},
    {"smiles": "Cc1nc(Cl)c(C(O)c2ccc(F)cc2Cl)n1-c1c(F)cc(Br)cc1F", "note": "(stereo not drawn) [compound 76]", "values": [
      {"measurement": "Test A rating (100 = 100% disease control, 0 = no disease control relative to the controls)", "setting": "[1]; [5]", "value": "99* %"},
      {"measurement": "Test D rating (100 = 100% disease control, 0 = no disease control relative to the controls)", "setting": "[2]; [5]", "value": "0* %"},
      {"measurement": "Test B rating (100 = 100% disease control, 0 = no disease control relative to the controls)", "setting": "[3]; [5]", "value": "100* %"},
      {"measurement": "Test C rating (100 = 100% disease control, 0 = no disease control relative to the controls)", "setting": "[4]; [5]", "value": "0* %"}
    ]},
    {"smiles": "Cc1cc(F)ccc1C(O)c1c(Br)nc(C)n1-c1c(Cl)cccc1Cl", "note": "(stereo not drawn) [compound 367]", "values": [
      {"measurement": "Test A rating (100 = 100% disease control, 0 = no disease control relative to the controls)", "setting": "[1]; [6]", "value": 98, "unit": "%"},
      {"measurement": "Test D rating (100 = 100% disease control, 0 = no disease control relative to the controls)", "setting": "[2]; [6]", "value": 96, "unit": "%"},
      {"measurement": "Test B rating (100 = 100% disease control, 0 = no disease control relative to the controls)", "setting": "[3]; [6]", "value": 100, "unit": "%"},
      {"measurement": "Test C rating (100 = 100% disease control, 0 = no disease control relative to the controls)", "setting": "[4]; [6]", "value": 96, "unit": "%"}
    ]},
    {"smiles": "OC(c1ccc(F)cc1F)c1c(Cl)nc(Cl)n1-c1ccc(F)cc1F", "note": "(single isomer, unassigned) [compound 79]", "values": [
      {"measurement": "Test A rating (100 = 100% disease control, 0 = no disease control relative to the controls)", "setting": "[1]; [6]", "value": 100, "unit": "%"},
      {"measurement": "Test D rating (100 = 100% disease control, 0 = no disease control relative to the controls)", "setting": "[2]; [6]", "value": 0, "unit": "%"},
      {"measurement": "Test B rating (100 = 100% disease control, 0 = no disease control relative to the controls)", "setting": "[3]; [6]", "value": 100, "unit": "%"},
      {"measurement": "Test C rating (100 = 100% disease control, 0 = no disease control relative to the controls)", "setting": "[4]; [6]", "value": 98, "unit": "%"}
    ]},
    {"smiles": "Cc1nc(Cl)c(C(O)c2c(Cl)cccc2Cl)n1-c1c(F)cccc1F", "note": "(stereo not drawn) [compound 193]", "values": [
      {"measurement": "Test A rating (100 = 100% disease control, 0 = no disease control relative to the controls)", "setting": "[1]; [5]", "value": "99* %"},
      {"measurement": "Test D rating (100 = 100% disease control, 0 = no disease control relative to the controls)", "setting": "[2]; [5]", "value": "0* %"},
      {"measurement": "Test B rating (100 = 100% disease control, 0 = no disease control relative to the controls)", "setting": "[3]; [5]", "value": "100* %"},
      {"measurement": "Test C rating (100 = 100% disease control, 0 = no disease control relative to the controls)", "setting": "[4]; [5]", "value": "59* %"}
    ]},
    {"smiles": "Cc1nc(Cl)c(C(O)c2ccc(F)cc2F)n1-c1c(F)cccc1F", "note": "(stereo not drawn) [compound 131]", "values": [
      {"measurement": "Test A rating (100 = 100% disease control, 0 = no disease control relative to the controls)", "setting": "[1]; [5]", "value": "100* %"},
      {"measurement": "Test D rating (100 = 100% disease control, 0 = no disease control relative to the controls)", "setting": "[2]; [5]", "value": "99* %"},
      {"measurement": "Test B rating (100 = 100% disease control, 0 = no disease control relative to the controls)", "setting": "[3]; [5]", "value": "100* %"},
      {"measurement": "Test C rating (100 = 100% disease control, 0 = no disease control relative to the controls)", "setting": "[4]; [5]", "value": "99* %"}
    ]}
  ]
}
